Assay results from patent EP3818828A1 (priority 2019, dated 2021).
≈ marks a conversion by molar mass, not a printed value. Like-named read-outs stand apart in the source and are kept apart here.

How the values were obtained:
[1] = system: damping-off (P. aphanidermatum, P.capsici); assay: In-vivo greenhouse control of damping-off of eggplants; details: Eggplant; sick soil; 0.80 mg/mL (active ingredients)
Description: (§1) 3.88 g of 3-(3',4'-methylenedioxy phenyl)-N-n-propyl acrylamide was weighed and dissolved in 25 g of absolute ethyl alcohol, then 6 g of emulsifier 0203B was added, and mixed uniformly with stirring to get 10% of 3-(3',4'-methylenedioxy phenyl)-N-n-propyl acrylamide EC.
(§2) 5.61 g of 3-(3',4'-methylenedioxy phenyl)-piperidine acrylate was weighed and dissolved in 25 g of absolute ethyl alcohol, then 6 g of emulsifier 0203B was added, and mixed uniformly with stirring to get 14% of 3-(3',4'-methylenedioxy phenyl)-piperidine acrylate EC.
(§3) Sick soil of damping-off (P. aphanidermatum, P.capsici) was collected from the fields of tomatoes, eggplants and peppers in a solar greenhouse, and mixed evenly in equal proportion. Tomatoes (Variety: Song Tian Fen Yang Yang, 100 grains), eggplants (Variety: Lanza No. 2 F1 long eggplant, 100 grains), pepper (Longjiao No. 2 F1, 100 grains) were seeded quantitatively with the sick soil in pots (diameter: 15 cm) in a greenhouse, additionally with sterile vermiculite as the control (each 100 grains for determining the germination rate). […] Mortality of seedlings was investigated after the seedlings had grown 2 true leaves, and the control effect of each treatment on damping-off was calculated. […]

Leveillula taurica = assay: In-vivo greenhouse control of pepper powdery mildew
Description: as §2
Pepper seedling (Variety: Bell pepper) was carried out in a greenhouse, and the seedlings were transplanted into pots, 3 for each pot. Sick leaves of powdery mildew (Leveillula taurica) were harvested form peppers (Longjiao No. 2) in a solar greenhouse in Jingyuan County, Baiyin City, and formulated into a spore suspension of powdery mildew. Both sides of the pepper leaves were sprayed evenly with a small hand-held sprayer and inoculated. The first application was started at the early onset of powdery mildew. 14% of 3-(3',4'-methylenedioxy phenyl)-piperidine acrylate EC was diluted at four concentrations of 1.00, 0.667, 0.50 and 0.40 mg/mL (active ingredients); the control agent, 12.5% of myclobutanil EC, was diluted at a concentration of 0.063 mg/mL (active ingredients); additionally clear water was used as the control. The instrument for application is a small hand-held sprayer. Both sides of the leaves were sprayed evenly so that the leaves were wetted by the liquor without loss. Applications were conducted every 7 days consecutively for 3 times. 10 days after the third application, the disease extent of powdery mildew in the upper, middle and lower 3 leaves of each plant was investigated, to calculate the disease index and the control effect.

cucumber powdery mildew = assay: In-vivo greenhouse determination of systemic action (root-irrigation) on cucumber powdery mildew
Description: as §2
Cucumber (Variety: Tianjin Mici) was sown in big pots (with a diameter of 30 cm) in a greenhouse, remaining 3 plants for each pot after emergence. The first root-irrigation was started at the early onset of cucumber powdery mildew (first appearance of spots on the true leaves). 14% of 3-(3',4'-methylenedioxy phenyl)-piperidine acrylate EC was diluted at three concentrations of 1.00, 0.667 and 0.50 mg/mL (active ingredients), 500 mL liquor for each pot. The root-irrigations were conducted every 7 days consecutively for 3 times. 10 days after the third root-irrigation, the number of sick leaves at each grade of cucumber powdery mildew was investigated for the whole plant following the grading standard of 9 grades, to calculate the disease index and the control effect.

[2] = system: damping-off (P. aphanidermatum, P.capsici); assay: In-vivo greenhouse control of damping-off of tomatoes; details: Tomato; sick soil; 0.80 mg/mL (active ingredients)
Description: as §1, §2, §3

[3] = system: damping-off (P. aphanidermatum, P.capsici); assay: In-vivo greenhouse control of damping-off of peppers; details: Pepper; sick soil; 0.80 mg/mL (active ingredients)
Description: as §1, §2, §3

Phytophthora infestans = assay: microbe, parasite or virus in culture; type: cell-based; details: for EC50: median inhibition concentration
Exserohilum turcicum = assay: Toxicity determination (EC50) on mycelial growth, growth rate method; type: cell-based; details: for EC50: median inhibition concentration
Description: The inhibition of samples for testing on the mycelial growth of plant pathogenic fungi for testing is determined with a growth rate method. 3-(3',4'-methylenedioxy phenyl)-N-n-propyl acrylamide, 3-(3',4'-methylenedioxy phenyl)-piperidine acrylate and five control agents are dissolved with dimethyl sulfoxide (DMSO), then formulated at 5-7 concentrations of different gradients for test following the trial test results, with the same concentration of DMSO as the control solvent, each treatment in triplicate. Fungal cakes with a diameter of 4 mm are taken from the edge of the colony, inoculated into the center of a PDA plate containing different agents of different concentrations and the DMSO control, with one piece of fungal cake inoculated in each plate (with a diameter of […]), and incubated in a constant temperature incubator at a temperature of 22±1.5°C. 7 days later (10-20 days may be needed for some pathogenic fungi), the diameter of the colony is measured with a cross over method according to the mycelial growth profile of the control pathogenic fungi, then the inhibition rate of mycelial growth is calculated.
3-(3',4'-methylenedioxy phenyl)-piperidine acrylate, the control agents 96.5% of chlorothalonil technical and 97.0% of procymidone technical. Agents for testing and the control agents chlorothalonil and procymidone are treated at 5-8 concentrations of different gradients on the basis of preliminary tests to ensure that the inhibition rates for treatments at all the concentrations are between 10% and 90%.
For specific determination methods, with reference to Embodiment 1. The concentration of active ingredients in the culture medium is used as the testing concentration to calculate the toxic regression equation (Y=bx+a) and the median inhibition concentration EC50, 95% confidence limit, and relative toxicity. Relative toxicity (compared to chlorothalonil) = EC50 of chlorothalonil / EC50 of 3-(3',4'-methylenedioxy phenyl)-piperidine acrylate, and relative toxicity (compared to procymidone) = EC50 of procymidone / EC50 of 3-(3',4'-methylenedioxy phenyl)-piperidine acrylate.

F. graminearum = assay: microbe, parasite or virus in culture; type: cell-based; details: for EC50: median inhibition concentration
[4] = EC50 of chlorothalonil / EC50 of agent
[5] = EC50 of procymidone / EC50 of agent

Question: Which results are given for O=C(/C=C/c1ccc2c(c1)OCO2)N1CCCCC1 [3-(3',4'-methylenedioxyphenyl)-piperidine acrylate]?
Answer: Control Effect [1]: 63.47%; Control Effect (Leveillula taurica; 0.50 mg/mL): 75.56%; Control Effect (Leveillula taurica; 0.667 mg/mL): 84.56%; Control Effect (Leveillula taurica; 1.00 mg/mL): 100%; systemic activity (cucumber powdery mildew; cucumber powdery mildew, uptake by roots and delivery upwards): no systemic activity; effects of root-irrigations on cucumber powdery mildew (cucumber powdery mildew; root-irrigations at 1.00, 0.667 and 0.50 mg/mL at the early onset): no effects; Control Effect [2]: 61.41%; Control Effect [3]: 67.71%; Relative Toxicity (Compared to Chlorothalonil) (Phytophthora infestans; [4]): 1.23; Relative Toxicity (Compared to Procymidone) (Phytophthora infestans; [5]): 8.36; EC50 (Phytophthora infestans): 90 µg/mL (≈ 347 µM); EC50 (Phytophthora infestans; listed as 66#): 93 µg/mL (≈ 359 µM); Relative Toxicity (Compared to Chlorothalonil) (Exserohilum turcicum; [4]): 3.21; Relative Toxicity (Compared to Procymidone) (Exserohilum turcicum; [5]): 0.82; EC50 (Exserohilum turcicum; listed as 66#): 128.1 µg/mL (≈ 494 µM); EC50 (Exserohilum turcicum; read-out: EC50): 130 µg/mL (≈ 501 µM); Relative Toxicity (Compared to Chlorothalonil) (F. graminearum; [4]): 1.82; Relative Toxicity (Compared to Procymidone) (F. graminearum; [5]): 6.83; EC50 (F. graminearum; Fusarium graminearum): 120 µg/mL (≈ 463 µM); EC50 (F. graminearum; listed as 66#): 124.5 µg/mL (≈ 480 µM)
